The record followed here is patent US8173813B2, “Quinolone and tetrahydroquinolone and related compounds having NOS inhibitory activity” (NeurAxon, Inc., priority 2007, dated 2012).

Format in all cases: biochemical
For one test, the target named is iNOS (Mouse) (Mus musculus, UniProt P29477). The test is described as follows: iNOS (Mouse) enzyme assay. As to conditions: values in parentheses, read-out: iNOS IC50 (rodent data in parentheses). The method, then: nNOS (Rat), eNOS (Rat) and iNOS (Mouse) Enzyme Assay Recombinant rat or mouse NO synthases (iNOS, eNOS, nNOS) were expressed in Sf9 cells (Sigma), 36 mg prot/ml (Bradford). […] Inhibition of NOS was determined by measuring the formation of L-[3H] citrulline from L-[3H] arginine. […] Stop buffer:100 mM Hepes, pH 5.5, 3 mM EDTA, 3 mM EGTA. Enzyme and inhibitor were pre-incubated for 35 min in the presence of NADPH before addition of arginine to initiate the reaction.

For another test, the target named is eNOS (Rat) (Rattus norvegicus, UniProt Q62600). The test is described as follows: eNOS (Rat) enzyme assay. The conditions noted are these: values in parentheses, read-out: eNOS IC50 (rodent data in parentheses).
eNOS (Rat), sequence (Q62600 2-1202): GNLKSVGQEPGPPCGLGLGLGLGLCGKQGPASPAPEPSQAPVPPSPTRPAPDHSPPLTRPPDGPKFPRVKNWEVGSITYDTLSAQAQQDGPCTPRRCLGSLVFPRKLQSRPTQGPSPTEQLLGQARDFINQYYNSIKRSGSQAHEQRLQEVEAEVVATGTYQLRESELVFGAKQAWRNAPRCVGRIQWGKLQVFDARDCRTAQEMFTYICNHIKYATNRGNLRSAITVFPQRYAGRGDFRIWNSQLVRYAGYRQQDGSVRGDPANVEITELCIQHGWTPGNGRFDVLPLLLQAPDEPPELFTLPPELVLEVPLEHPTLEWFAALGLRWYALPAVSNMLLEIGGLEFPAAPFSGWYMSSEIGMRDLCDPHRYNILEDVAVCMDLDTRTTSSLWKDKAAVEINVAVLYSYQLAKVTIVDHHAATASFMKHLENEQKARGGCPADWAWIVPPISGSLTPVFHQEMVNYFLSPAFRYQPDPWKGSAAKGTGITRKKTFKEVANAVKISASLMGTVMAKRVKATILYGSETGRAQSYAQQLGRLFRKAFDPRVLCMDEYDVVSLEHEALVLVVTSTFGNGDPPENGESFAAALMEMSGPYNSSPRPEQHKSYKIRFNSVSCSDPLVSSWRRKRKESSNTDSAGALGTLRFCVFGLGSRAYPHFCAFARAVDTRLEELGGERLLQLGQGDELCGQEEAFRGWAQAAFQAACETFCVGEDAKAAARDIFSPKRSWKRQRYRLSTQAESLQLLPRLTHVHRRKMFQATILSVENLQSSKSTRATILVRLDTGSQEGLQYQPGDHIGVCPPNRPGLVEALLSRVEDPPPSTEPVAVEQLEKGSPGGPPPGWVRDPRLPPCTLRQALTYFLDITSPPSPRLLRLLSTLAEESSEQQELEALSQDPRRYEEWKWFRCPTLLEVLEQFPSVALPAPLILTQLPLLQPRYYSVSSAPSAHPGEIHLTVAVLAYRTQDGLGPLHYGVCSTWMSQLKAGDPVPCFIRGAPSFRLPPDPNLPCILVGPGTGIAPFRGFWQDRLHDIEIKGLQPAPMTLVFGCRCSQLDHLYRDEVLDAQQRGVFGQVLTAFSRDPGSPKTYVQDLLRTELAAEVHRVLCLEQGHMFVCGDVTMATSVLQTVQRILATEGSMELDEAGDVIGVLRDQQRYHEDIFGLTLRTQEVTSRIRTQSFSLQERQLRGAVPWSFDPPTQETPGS
The next test concerns the target nNOS (Rat) (Rattus norvegicus, UniProt P29476). The test is described as follows: nNOS (Rat) enzyme assay. As to conditions: values in parentheses; for pIC50: rat nNOS, read-out: nNOS IC50 (rodent data in parentheses). As for the experimental part:
nNOS (Rat), eNOS (Rat) and iNOS (Mouse) Enzyme Assay Recombinant rat or mouse NO synthases (iNOS, eNOS, nNOS) were expressed in Sf9 cells (Sigma), 36 mg prot/ml (Bradford). […] Inhibition of NOS was determined by measuring the formation of L-[3H] citrulline from L-[3H] arginine. […] Stop buffer:100 mM Hepes, pH 5.5, 3 mM EDTA, 3 mM EGTA.

Test [1] deals with Nitric oxide synthase (endothelial, human recombinant) eNOS (Homo sapiens, UniProt P29474). The test is described as follows: Human eNOS enzyme assay ([3H]L-arginine to [3H]L-citrulline).
Nitric oxide synthase (endothelial, human recombinant) eNOS, sequence (P29474 2-1203): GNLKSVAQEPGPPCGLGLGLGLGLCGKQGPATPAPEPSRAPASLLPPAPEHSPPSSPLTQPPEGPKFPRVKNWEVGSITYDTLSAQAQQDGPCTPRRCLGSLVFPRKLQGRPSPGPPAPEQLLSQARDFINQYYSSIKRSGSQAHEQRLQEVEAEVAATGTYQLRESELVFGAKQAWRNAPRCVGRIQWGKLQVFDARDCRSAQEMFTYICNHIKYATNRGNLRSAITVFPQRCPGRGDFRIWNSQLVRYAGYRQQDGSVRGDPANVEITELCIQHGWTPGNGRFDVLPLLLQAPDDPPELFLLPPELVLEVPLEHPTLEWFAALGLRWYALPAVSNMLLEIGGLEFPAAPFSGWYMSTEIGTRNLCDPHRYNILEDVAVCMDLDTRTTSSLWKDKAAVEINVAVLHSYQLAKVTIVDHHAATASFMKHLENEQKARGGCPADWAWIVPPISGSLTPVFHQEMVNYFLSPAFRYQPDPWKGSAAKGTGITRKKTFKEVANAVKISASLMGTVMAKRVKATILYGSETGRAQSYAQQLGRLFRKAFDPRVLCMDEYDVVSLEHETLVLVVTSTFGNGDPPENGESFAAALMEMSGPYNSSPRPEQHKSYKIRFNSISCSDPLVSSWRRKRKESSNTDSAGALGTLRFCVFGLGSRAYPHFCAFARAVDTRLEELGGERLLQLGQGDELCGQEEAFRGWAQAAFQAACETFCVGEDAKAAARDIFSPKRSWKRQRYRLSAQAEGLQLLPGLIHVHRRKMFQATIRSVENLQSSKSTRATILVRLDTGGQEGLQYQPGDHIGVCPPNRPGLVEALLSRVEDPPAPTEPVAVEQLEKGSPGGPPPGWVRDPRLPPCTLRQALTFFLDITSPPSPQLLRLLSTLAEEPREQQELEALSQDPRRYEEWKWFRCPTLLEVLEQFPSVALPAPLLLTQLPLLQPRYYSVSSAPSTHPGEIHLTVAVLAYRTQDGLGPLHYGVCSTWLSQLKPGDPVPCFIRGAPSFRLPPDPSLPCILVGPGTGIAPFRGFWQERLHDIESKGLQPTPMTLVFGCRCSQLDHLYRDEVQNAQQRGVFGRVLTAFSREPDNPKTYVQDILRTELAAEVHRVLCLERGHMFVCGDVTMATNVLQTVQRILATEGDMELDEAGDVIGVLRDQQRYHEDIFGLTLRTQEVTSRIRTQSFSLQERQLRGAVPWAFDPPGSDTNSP
Test [2] deals with Nitric oxide synthase (neuronal, human recombinant) nNOS (Homo sapiens, UniProt P29475). The test is described as follows: Human nNOS enzyme assay ([3H]L-arginine to [3H]L-citrulline).
Nitric oxide synthase (neuronal, human recombinant) nNOS, sequence (P29475 whole entry): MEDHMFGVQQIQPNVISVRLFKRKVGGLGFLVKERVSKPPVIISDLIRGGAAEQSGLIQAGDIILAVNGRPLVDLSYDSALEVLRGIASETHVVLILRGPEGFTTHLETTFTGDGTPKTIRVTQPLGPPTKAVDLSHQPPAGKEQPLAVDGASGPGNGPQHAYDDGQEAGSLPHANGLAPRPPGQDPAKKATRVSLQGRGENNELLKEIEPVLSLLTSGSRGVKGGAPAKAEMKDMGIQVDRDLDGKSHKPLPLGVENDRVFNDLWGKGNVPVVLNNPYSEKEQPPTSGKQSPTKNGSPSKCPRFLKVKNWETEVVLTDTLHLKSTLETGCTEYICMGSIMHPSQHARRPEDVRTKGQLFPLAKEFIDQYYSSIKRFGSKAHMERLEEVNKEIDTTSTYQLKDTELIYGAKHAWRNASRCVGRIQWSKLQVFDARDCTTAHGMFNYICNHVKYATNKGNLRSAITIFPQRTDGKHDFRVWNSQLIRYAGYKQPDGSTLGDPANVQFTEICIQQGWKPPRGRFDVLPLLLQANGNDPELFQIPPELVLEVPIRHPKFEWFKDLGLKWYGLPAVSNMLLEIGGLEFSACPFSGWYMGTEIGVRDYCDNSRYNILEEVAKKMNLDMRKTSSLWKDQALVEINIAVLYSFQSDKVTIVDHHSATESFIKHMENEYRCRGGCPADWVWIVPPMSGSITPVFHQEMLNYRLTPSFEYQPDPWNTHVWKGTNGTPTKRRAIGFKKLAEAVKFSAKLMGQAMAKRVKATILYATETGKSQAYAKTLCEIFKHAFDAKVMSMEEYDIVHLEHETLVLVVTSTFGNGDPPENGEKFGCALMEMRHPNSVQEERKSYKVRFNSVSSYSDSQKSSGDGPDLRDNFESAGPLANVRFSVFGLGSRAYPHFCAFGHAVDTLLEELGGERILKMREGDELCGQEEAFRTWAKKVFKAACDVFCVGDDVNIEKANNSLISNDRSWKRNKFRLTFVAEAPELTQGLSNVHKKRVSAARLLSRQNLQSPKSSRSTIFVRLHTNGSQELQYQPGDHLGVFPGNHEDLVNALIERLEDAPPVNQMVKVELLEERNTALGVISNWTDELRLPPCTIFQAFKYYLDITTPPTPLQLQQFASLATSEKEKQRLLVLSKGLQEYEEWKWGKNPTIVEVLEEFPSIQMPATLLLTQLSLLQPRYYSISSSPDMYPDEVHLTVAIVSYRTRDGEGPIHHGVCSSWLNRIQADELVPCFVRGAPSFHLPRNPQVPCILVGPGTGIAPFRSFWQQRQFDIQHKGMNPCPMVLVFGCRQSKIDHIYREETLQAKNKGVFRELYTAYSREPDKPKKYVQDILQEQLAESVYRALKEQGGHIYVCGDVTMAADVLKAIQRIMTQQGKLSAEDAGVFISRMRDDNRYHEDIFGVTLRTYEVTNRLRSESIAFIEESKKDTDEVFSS
Test [3] has as its target Recombinant human inducible NOS (iNOS) (Homo sapiens, UniProt P35228). The test is described as follows: Human iNOS enzyme assay, radiometric.
Setting [4] is: human recombinant eNOS, values without parentheses, read-out: heNOS IC50.
The mark [5] stands for this setting: human recombinant nNOS, values without parentheses, read-out: hnNOS IC50.
The mark [6] stands for this setting: human recombinant iNOS, values without parentheses, read-out: hiNOS IC50.
The mark [7] stands for this setting: human enzymes, ratio of eNOS IC50 to nNOS IC50.

pIC50: −log10 of the molar value. Structures can show the parent of a compound that is named as a salt. Where two headings read alike, the source gives them in different places.

Recombinant human inducible NOS (iNOS), sequence (P35228 whole entry): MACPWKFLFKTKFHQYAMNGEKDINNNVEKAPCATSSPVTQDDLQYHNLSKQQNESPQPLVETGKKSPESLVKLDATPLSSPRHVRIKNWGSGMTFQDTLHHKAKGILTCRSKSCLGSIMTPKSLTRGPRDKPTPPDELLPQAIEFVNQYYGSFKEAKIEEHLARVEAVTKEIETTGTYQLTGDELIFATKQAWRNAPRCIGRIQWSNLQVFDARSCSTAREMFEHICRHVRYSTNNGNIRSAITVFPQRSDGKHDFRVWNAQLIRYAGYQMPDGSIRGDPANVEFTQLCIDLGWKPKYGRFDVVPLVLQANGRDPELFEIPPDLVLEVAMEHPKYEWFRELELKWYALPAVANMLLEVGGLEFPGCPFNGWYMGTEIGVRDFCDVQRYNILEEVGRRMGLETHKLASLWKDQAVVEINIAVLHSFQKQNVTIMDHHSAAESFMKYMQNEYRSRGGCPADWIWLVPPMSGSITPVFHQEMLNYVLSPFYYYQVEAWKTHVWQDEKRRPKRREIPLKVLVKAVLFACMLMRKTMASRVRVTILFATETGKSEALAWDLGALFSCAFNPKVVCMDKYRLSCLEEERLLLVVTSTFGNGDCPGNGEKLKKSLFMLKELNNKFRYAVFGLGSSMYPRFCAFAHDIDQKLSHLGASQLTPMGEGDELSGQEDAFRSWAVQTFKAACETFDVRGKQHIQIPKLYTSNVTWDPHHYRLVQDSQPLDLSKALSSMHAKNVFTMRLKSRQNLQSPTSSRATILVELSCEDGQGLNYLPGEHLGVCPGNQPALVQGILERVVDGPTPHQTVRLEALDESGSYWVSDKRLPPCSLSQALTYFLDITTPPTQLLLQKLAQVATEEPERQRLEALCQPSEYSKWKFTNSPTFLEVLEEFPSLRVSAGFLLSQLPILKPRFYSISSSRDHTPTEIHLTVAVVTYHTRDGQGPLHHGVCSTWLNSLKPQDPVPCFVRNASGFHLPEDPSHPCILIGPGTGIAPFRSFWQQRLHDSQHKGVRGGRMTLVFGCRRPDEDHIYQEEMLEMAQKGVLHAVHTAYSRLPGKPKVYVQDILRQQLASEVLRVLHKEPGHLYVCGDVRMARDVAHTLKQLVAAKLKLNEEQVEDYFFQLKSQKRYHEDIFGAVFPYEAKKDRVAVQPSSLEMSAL

One may read the pIC50 as the negative decadic logarithm of the IC50, by convention in mol/L. On to `N=C(Nc1ccc2c(c1)CCCN2C1CCNC1)c1cccs1` (single isomer, unassigned; (-)) [Example 65, (−)-N-(1-(pyrrolidin-3-yl)-1,2,3,4-tetrahydroquinolin-6-yl)thiophene-2-carboximidamide dihydrochloride], for which the pIC50 was 5.12 at iNOS (Mouse); 5.04 on eNOS (Rat); 6.55 at nNOS (Rat); 4.65 in test [1] (setting [4]); 6.51 in test [2] (setting [5]).
`CCNCCN1CCCc2cc(NC(=N)c3cccs3)ccc21` [Example 60, N-(1-(2-(Ethylamino)ethyl)-1,2,3,4-tetrahydroquinolin-6-yl)thiophene-2-carboximidamide]: the pIC50 in test [3] (setting [6]) was 4.78; on eNOS (Rat) it was below 4.00; on nNOS (Rat), 6.36; in test [1] (setting [4]), 4.28; in test [2] (setting [5]), 6.41. Also, the “Selectivity eNOS/nNOS (rodent data in parentheses)” value on nNOS (Rat) (rodent enzymes) was “(>227)”. Besides, the “Selectivity eNOS/nNOS” value in test [2] (setting [7]) is on record as 135.
`CN(CCO)CCN1CCCc2cc(NC(=N)c3cccs3)ccc21` [Example 62, N-(1-(2-((2-Hydroxyethyl)(methyl)amino)ethyl)-1,2,3,4-tetrahydroquinolin-6-yl)thiophene-2-carboximidamide]: the pIC50 on iNOS (Mouse) was 5.15; on nNOS (Rat), 6.03; in test [1] (setting [4]), 4.19; in test [2] (setting [5]), 6.89. The “Selectivity eNOS/nNOS” value in test [2] (setting [7]) amounted to 492.
As for `CC(CN1C(=O)CCc2cc(NC(=N)c3cccs3)ccc21)N1CCCC1` (centres unmarked) [Example 15, N-(2-oxo-1-(2-(pyrrolidin-1-yl)propyl)-1,2,3,4-tetrahydroquinolin-6-yl)thiophene-2-carboximidamide], the pIC50 was below 4.00 in test [3] (setting [6]), 4.28 in test [1] (setting [4]) and 5.24 in test [2] (setting [5]). Also, the “Selectivity eNOS/nNOS” value in test [2] (setting [7]) was found to be 9.1.
Turning to `N=C(Nc1ccc2c(c1)CCCC(=O)N2CCN1CCCCC1)c1cccs1` [Example 38, N-(2-Oxo-1-(2-(piperidin-1-yl)ethyl)-2,3,4,5-tetrahydro-1H-benzo[b]azepin-7-yl)thiophene-2-carboximidamide], the results for the pIC50 in test [3] (setting [6]), in test [1] (setting [4]) and in test [2] (setting [5]) were 5.09, 3.83 and 5.00, respectively. Further, the “Selectivity eNOS/nNOS” value in test [2] (setting [7]) was 14.8.
On the same counts, the results for `N=C(Nc1ccc2c(c1)C(C1CCNC1)C(=O)N2)c1cccs1` (centres unmarked) [Example 43, N-(2-Oxo-3-(pyrrolidin-3-yl)indolin-5-yl)thiophene-2-carboximidamide] are 5.15, 4.56, 6.74 and 152.
With `CC1C(=O)N(C2CCN(C)CC2)c2ccc(NC(=N)c3cccs3)cc21` (centres unmarked) [Example 17, N-(3-Methyl-1-(1-methylpiperidin-4-yl)-2-oxoindolin-5-yl)thiophene-2-carboximidamide], the pIC50 in test [3] (hiNOS IC50) was 4.24; in test [1] (heNOS IC50), 3.81; in test [2] (hnNOS IC50), 5.31. Besides, the “Selectivity eNOS/nNOS” value in test [2] was 31.
For the molecule `N=C(Nc1ccc2c(c1)CCCN2C1CCNC1)c1cccs1` (single isomer, unassigned; (+)) [Example 66, (+)-N-(1-(pyrrolidin-3-yl)-1,2,3,4-tetrahydroquinolin-6-yl)thiophene-2-carboximidamide dihydrochloride], the pIC50 at iNOS (Mouse) was 5.54; at nNOS (Rat), 7.00; in test [1] (setting [4]) it was 4.85; in test [2] (setting [5]), 8.00.
As to `CN(C)CCN1C(=O)CCc2cc(NC(=N)c3cccs3)cc(F)c21` [Example 41, N-(1-(2-(Dimethylamino)ethyl)-8-fluoro-2-oxo-1,2,3,4-tetrahydroquinolin-6-yl)thiophene-2-carboximidamide], the pIC50 in test [3] (setting [6]) was 5.49; in test [1] (read-out: heNOS IC50), 3.71; in test [2] (setting [5]), 5.48.
`CNCCN1C(=O)CCc2cc(NC(=N)c3cccs3)ccc21` [Example 34, N-(1-(2-(Methylamino)ethyl)-2-oxo-1,2,3,4-tetrahydroquinolin-6-yl)thiophene-2-carboximidamide]: the pIC50 in test [3] (setting [6]) was 5.89; in test [1] (setting [4]), 4.35; in test [2] (setting [5]) it was 6.41. The “Selectivity eNOS/nNOS” value in test [2] (setting [7]) is 115.
With `CCN(CC)CCN1C(=O)CCc2cc(NC(=N)c3cccs3)ccc21` [Example 2, N-(1-(2-(diethylamino)ethyl)-2-oxo-1,2,3,4-tetrahydroquinolin-6-yl)thiophene-2-carboximidamide], the pIC50 in test [3] (setting [6]) was 4.66; in test [1] (read-out: heNOS IC50) it was 4.13; in test [2] (read-out: hnNOS IC50) it was 5.66.
The corresponding values for `CN1CCC(N2CCCc3cc(NC(=N)c4cccs4)ccc32)C1` (centres unmarked) [Example 35, N-(1-(1-Methylpyrrolidin-3-yl)-1,2,3,4-tetrahydroquinolin-6-yl)thiophene-2-carboximidamide] are 5.31, 4.56 and 6.44.
Take `Cl.Cl.N=C(Nc1ccc2c(c1)CCCN2CCN1CCCC1)c1cccs1` [Example 12, N-(1-(2-(pyrrolidin-1-yl)ethyl)-1,2,3,4-tetrahydroquinolin-6-yl)thiophene-2-carboximidamide dihydrochloride]: the pIC50 at iNOS (Mouse) is below 4.00; on eNOS (Rat) it was below 4.00; at nNOS (Rat), 5.72; in test [1] (setting [4]), 4.44; in test [2] (setting [5]), 6.51. For the same molecule, the “Selectivity eNOS/nNOS” value in test [2] (setting [7]) turned out to be 115.
Take `CN1CCCC1CCN1CCCc2cc(NC(=N)c3cccs3)cc(F)c21.Cl.Cl` (centres unmarked) [Example 55, N-(8-Fluoro-1-(2-(1-methylpyrrolidin-2-yl)ethyl)-1,2,3,4-tetrahydroquinolin-6-yl)thiophene-2-carboximidamide dihydrochloride]: the pIC50 in test [3] (setting [6]) was below 4.00; in test [1] (setting [4]) it was 4.84; in test [2] (setting [5]), 7.10. Also, the “Selectivity eNOS/nNOS” value in test [2] (setting [7]) was 181.
As to `CN1CCC(N2CCCCc3cc(NC(=N)c4cccs4)ccc32)CC1` [Example 39, N-(1-(1-Methylpiperidin-4-yl)-2,3,4,5-tetrahydro-1H-benzo[b]azepin-7-yl)thiophene-2-carboximidamide], the pIC50 in test [3] (read-out: hiNOS IC50) is 5.87; in test [1] (read-out: heNOS IC50), 4.70; in test [2] (read-out: hnNOS IC50) it was 5.53.
With `CN1CCC(N2CCCc3cc(NC(=N)c4cccs4)ccc32)CC1` [Example 18, N-(1-(1-methylpiperidin-4-yl)-1,2,3,4-tetrahydroquinolin-6-yl)thiophene-2-carboximidamide], the pIC50 was below 4.00 in test [3] (hiNOS IC50), 4.30 in test [1] (heNOS IC50) and 5.06 in test [2] (hnNOS IC50). In test [2], the “Selectivity eNOS/nNOS” value was found to be 5.7.
As to `CN1CCC(N2CCCc3cc(NC(=N)c4cccs4)ccc32)C1` (single isomer, unassigned) [Example 56, N-(1-(1-Methylpyrrolidin-3-yl)-1,2,3,4-tetrahydroquinolin-6-yl)thiophene-2-carboximidamide], the pIC50 in test [3] (setting [6]) is 4.47; on eNOS (Rat), 5.35; on nNOS (Rat), 7.06; in test [1] (setting [4]), 4.74; in test [2] (setting [5]), 7.05. For the same molecule, the “Selectivity eNOS/nNOS” value in test [2] (setting [7]) is 203.
With `N=C(Nc1ccc2c(c1)CCC(=O)N2CCN1CCCC1)c1cccs1` [Example 6, N-(2-oxo-1-(2-(pyrrolidin-1-yl)ethyl)-1,2,3,4-tetrahydroquinolin-6-yl)thiophene-2-carboximidamide], the pIC50 in test [3] (setting [6]) was below 4.00; in test [1] (read-out: heNOS IC50), 4.53; in test [2] (setting [5]), 6.78.
Take `N=C(Nc1ccc2c(c1)CCCCN2C1CCNC1)c1cccs1` (centres unmarked) [Example 48, N-(1-(Pyrrolidin-3-yl)-2,3,4,5-tetrahydro-1H-benzo[b]azepin-7-yl)thiophene-2-carboximidamide]: the pIC50 in test [3] (setting [6]) was 6.21; in test [1] (read-out: heNOS IC50), 4.12; in test [2] (read-out: hnNOS IC50), 6.48.
As for `CN1CCC(N2CCCc3cc(NC(=N)c4cccs4)ccc32)C1` (single isomer, unassigned) [Example 57, N-(1-(1-Methylpyrrolidin-3-yl)-1,2,3,4-tetrahydroquinolin-6-yl)thiophene-2-carboximidamide], the pIC50 in test [3] (setting [6]) was 4.39; on eNOS (Rat) it was below 4.00; on nNOS (Rat) it was 6.30; in test [1] (setting [4]), 3.70; in test [2] (setting [5]), 6.49. Besides, the “Selectivity eNOS/nNOS” value in test [2] (setting [7]) is listed as 622.
For the molecule `CN(C)CCN1C(=O)CCCc2cc(NC(=N)c3cccs3)ccc21` [Example 25, N-(1-(2-(Dimethylamino)ethyl)-2-oxo-2,3,4,5-tetrahydro-1H-benzo[b]azepin-7-yl)thiophene-2-carboximidamide], the pIC50 in test [3] (setting [6]) is below 4.00; in test [1] (setting [4]) it was 3.82; in test [2] (setting [5]) it was 4.91. For the same molecule, in test [2] (setting [7]), the “Selectivity eNOS/nNOS” value was 12.3.
